Source: BigSolDB 2.1

[1] = in 1-methoxy-2-propanol, 293.15 K
[2] = in 1-methoxy-2-propanol, 298.15 K
[3] = in 1-methoxy-2-propanol, 303.15 K
[4] = in 1-methoxy-2-propanol, 308.15 K
[5] = in 1-methoxy-2-propanol, 313.15 K
[6] = in 1-methoxy-2-propanol, 318.15 K
[7] = in 1-methoxy-2-propanol, 323.15 K
[8] = in 1-methoxy-2-propanol, 328.15 K
[9] = in 1-methoxy-2-propanol, 333.15 K
[10] = in 1-methoxy-2-propanol, 338.15 K
[11] = in 1-methoxy-2-propanol, 343.15 K
[12] = in 1-methoxy-2-propyl acetate, 293.15 K
[13] = in 1-methoxy-2-propyl acetate, 298.15 K
[14] = in 1-methoxy-2-propyl acetate, 303.15 K
[15] = in 1-methoxy-2-propyl acetate, 308.15 K
[16] = in 1-methoxy-2-propyl acetate, 313.15 K
[17] = in 1-methoxy-2-propyl acetate, 318.15 K
[18] = in 1-methoxy-2-propyl acetate, 323.15 K
[19] = in 1-methoxy-2-propyl acetate, 328.15 K
[20] = in 1-methoxy-2-propyl acetate, 333.15 K
[21] = in 1-methoxy-2-propyl acetate, 338.15 K
[22] = in 1-methoxy-2-propyl acetate, 343.15 K
[23] = in 1-propoxy-2-propanol, 293.15 K
[24] = in 1-propoxy-2-propanol, 298.15 K
[25] = in 1-propoxy-2-propanol, 303.15 K
[26] = in 1-propoxy-2-propanol, 308.15 K
[27] = in 1-propoxy-2-propanol, 313.15 K
[28] = in 1-propoxy-2-propanol, 318.15 K
[29] = in 1-propoxy-2-propanol, 323.15 K
[30] = in 1-propoxy-2-propanol, 328.15 K
[31] = in 1-propoxy-2-propanol, 333.15 K
[32] = in 1-propoxy-2-propanol, 338.15 K
[33] = in 1-propoxy-2-propanol, 343.15 K
[34] = in 2-(2-methoxypropoxy) propanol, 293.15 K
[35] = in 2-(2-methoxypropoxy) propanol, 298.15 K
[36] = in 2-(2-methoxypropoxy) propanol, 303.15 K
[37] = in 2-(2-methoxypropoxy) propanol, 308.15 K
[38] = in 2-(2-methoxypropoxy) propanol, 313.15 K
[39] = in 2-(2-methoxypropoxy) propanol, 318.15 K
[40] = in 2-(2-methoxypropoxy) propanol, 323.15 K
[41] = in 2-(2-methoxypropoxy) propanol, 328.15 K
[42] = in 2-(2-methoxypropoxy) propanol, 333.15 K
[43] = in 2-(2-methoxypropoxy) propanol, 338.15 K
[44] = in 2-(2-methoxypropoxy) propanol, 343.15 K

O=P(Oc1ccccc1)(Oc1ccccc1)N1CCN(P(=O)(Oc2ccccc2)Oc2ccccc2)CC1
solubility (mole fraction) [1]: 0.000356 | solubility (mole fraction) [2]: 0.000447 | solubility (mole fraction) [3]: 0.000589 | solubility (mole fraction) [4]: 0.000782 | solubility (mole fraction) [5]: 0.00102 | solubility (mole fraction) [6]: 0.00132 | solubility (mole fraction) [7]: 0.00168 | solubility (mole fraction) [8]: 0.00215 | solubility (mole fraction) [9]: 0.00282 | solubility (mole fraction) [10]: 0.00367 | solubility (mole fraction) [11]: 0.00457 | solubility (mole fraction) [12]: 0.000351 | solubility (mole fraction) [13]: 0.000443 | solubility (mole fraction) [14]: 0.000517 | solubility (mole fraction) [15]: 0.00063 | solubility (mole fraction) [16]: 0.000762 | solubility (mole fraction) [17]: 0.000945 | solubility (mole fraction) [18]: 0.00115 | solubility (mole fraction) [19]: 0.00141 | solubility (mole fraction) [20]: 0.0017 | solubility (mole fraction) [21]: 0.00204 | solubility (mole fraction) [22]: 0.00248 | solubility (mole fraction) [23]: 0.000353 | solubility (mole fraction) [24]: 0.000445 | solubility (mole fraction) [25]: 0.000564 | solubility (mole fraction) [26]: 0.000715 | solubility (mole fraction) [27]: 0.000893 | solubility (mole fraction) [28]: 0.00112 | solubility (mole fraction) [29]: 0.00141 | solubility (mole fraction) [30]: 0.00177 | solubility (mole fraction) [31]: 0.00219 | solubility (mole fraction) [32]: 0.00275 | solubility (mole fraction) [33]: 0.00339 | solubility (mole fraction) [34]: 0.000974 | solubility (mole fraction) [35]: 0.00117 | solubility (mole fraction) [36]: 0.00139 | solubility (mole fraction) [37]: 0.00167 | solubility (mole fraction) [38]: 0.00199 | solubility (mole fraction) [39]: 0.00236 | solubility (mole fraction) [40]: 0.0029 | solubility (mole fraction) [41]: 0.00344 | solubility (mole fraction) [42]: 0.00408 | solubility (mole fraction) [43]: 0.00474 | solubility (mole fraction) [44]: 0.00562

O=P(NCc1cccc(CNP(=O)(Oc2ccccc2)Oc2ccccc2)c1)(Oc1ccccc1)Oc1ccccc1
solubility (mole fraction) [1]: 0.000609 | solubility (mole fraction) [2]: 0.000758 | solubility (mole fraction) [3]: 0.000936 | solubility (mole fraction) [4]: 0.00114 | solubility (mole fraction) [5]: 0.00138 | solubility (mole fraction) [6]: 0.00169 | solubility (mole fraction) [7]: 0.00204 | solubility (mole fraction) [8]: 0.00255 | solubility (mole fraction) [9]: 0.00305 | solubility (mole fraction) [10]: 0.00374 | solubility (mole fraction) [11]: 0.00432 | solubility (mole fraction) [12]: 0.00319 | solubility (mole fraction) [13]: 0.00373 | solubility (mole fraction) [14]: 0.0043 | solubility (mole fraction) [15]: 0.0049 | solubility (mole fraction) [16]: 0.00547 | solubility (mole fraction) [17]: 0.00635 | solubility (mole fraction) [18]: 0.00708 | solubility (mole fraction) [19]: 0.0079 | solubility (mole fraction) [20]: 0.00891 | solubility (mole fraction) [21]: 0.01 | solubility (mole fraction) [22]: 0.0115 | solubility (mole fraction) [23]: 0.000508 | solubility (mole fraction) [24]: 0.000636 | solubility (mole fraction) [25]: 0.000766 | solubility (mole fraction) [26]: 0.000964 | solubility (mole fraction) [27]: 0.00121 | solubility (mole fraction) [28]: 0.00144 | solubility (mole fraction) [29]: 0.00182 | solubility (mole fraction) [30]: 0.00216 | solubility (mole fraction) [31]: 0.00259 | solubility (mole fraction) [32]: 0.00316 | solubility (mole fraction) [33]: 0.00374 | solubility (mole fraction) [34]: 0.00267 | solubility (mole fraction) [35]: 0.00331 | solubility (mole fraction) [36]: 0.00401 | solubility (mole fraction) [37]: 0.00487 | solubility (mole fraction) [38]: 0.00584 | solubility (mole fraction) [39]: 0.00714 | solubility (mole fraction) [40]: 0.00829 | solubility (mole fraction) [41]: 0.00995 | solubility (mole fraction) [42]: 0.0116 | solubility (mole fraction) [43]: 0.0138 | solubility (mole fraction) [44]: 0.0156
